Experimental data: patent US20230146455A1, “TREATMENT OF INFLAMMATORY DISEASES WITH PEPTIDES AND PHARMACEUTICAL COMPOSITIONS” (Yuyu Pharma, Inc., priority 2020, published 2023)
Where “and” joins values, the source holds several entries; their conditions need not be identical. Equal entries are not always repeated. Where a SMILES comes first, the peptide text is derived from it. [ ]: non-standard residue; d: D form. Hyp = O=C(O)[C@@H]1C[C@@H](O)CN1

System: TIMP-1
Experiment: Example 9 Luminex, LPS hPBMCs: TIMP-1
Format: cell-based, human
Procedure: Treatment Human PBMCs were pretreated with YY-101, YDE-011 and YDE-043 or reference compound; Xiidra® at various concentration (ranging from 1 nM to 100 uM) for 2 h before stimulation. An equal volume of 0.5% DMSO was used as a vehicle control. Then, the cells were treated with LPS at 5 ug/ml. The supernatants from treated cells were harvested at 24 h and placed in a 96 well for Luminex cytokine & chemokine profiling using a Luminex 200 multiplex assay (Luminex; R&D system, USA).
The main study arm with triplicate wells per group in a 24-well plate: • 1. Blank • 2. PBMC: 0.5% DMSO • 3. PBMC+LPS (5 ug/ml) • 4. PBMC+YY-101 100 uM • 5. PBMC+YY-101 10 uM • 6. PBMC+YY-101 1 uM • 7. PBMC+YY-101 0.1 uM • 8. PBMC+YY-101 0.01 uM • 9. PBMC+LPS (5 ug/ml)+Xiidra®100 uM • 10. PBMC+LPS (5 ug/ml)+Xiidra® 10 uM • 11. PBMC+LPS (5 ug/ml)+Xiidra® 1 uM • 12. PBMC+LPS (5 ug/ml)+Xiidra®0.1 uM • 13. PBMC+LPS (5 ug/ml)+Xiidra®0.01 uM • 14. PBMC+LPS (5 ug/ml)+Xiidra®0.001 uM • 15. PBMC+LPS (5 ug/ml)+YY-101 100 uM • 16. PBMC+LPS (5 ug/ml)+YY-101 10 uM • 17. PBMC+LPS (5 ug/ml)+YY-101 1 uM • 18. PBMC+LPS (5 ug/ml)+YY-101 0.1 uM • 19. PBMC+LPS (5 ug/ml)+YY-101 0.01 uM • 20. PBMC+LPS (5 ug/ml)+YY-101 0.001 uM • 21. PBMC+LPS (5 ug/ml)+YDE-011 100 uM • 22. PBMC+LPS (5 ug/ml)+YDE-011 10 uM • 23. PBMC+LPS (5 ug/ml)+YDE-011 1 uM • 24. PBMC+LPS (5 ug/ml)+YDE-011 0.1 uM • 25. PBMC+LPS (5 ug/ml)+YDE-011 0.01 uM • 26. PBMC+LPS (5 ug/ml)+YDE-011 0.001 uM • 27. PBMC+LPS (5 ug/ml)+YDE-043 100 uM • 28. PBMC+LPS (5 ug/ml)+YDE-043 10 uM • 29. PBMC+LPS (5 ug/ml)+YDE-043 1 uM • 30. PBMC+LPS (5 ug/ml)+YDE-043 0.1 uM • 31. PBMC+LPS (5 ug/ml)+YDE-043 0.01 uM • 32. PBMC+LPS (5 ug/ml)+YDE-043 0.001 uM
Multiplex assay was used to measure 30 cytokines and chemokines. The 1:2, 1:10 and 1:200 diluted cell supernatant and serial dilution of the standard were dispensed into a 96 well plate at 50 ul/well. Then, the pre-mixed cocktail of antibody-coated magnetic beads was dispensed at 50 ul/well and incubated at room temperature for 2 h in a horizontal orbital microplate shaker at 800±500 rpm. The beads were washed using a magnetic device to prevent loss. The biotin-antibody was dispensed in 50 ul of each well and incubated at room temperature for 1 h in a shaker at 800±500 rpm. After washing, streptavidin-PE was added at 50 ul/well and incubated at room temperature for 30 min in a shaker under the same conditions. Finally, after washing, wash buffer (100 ul/well) was added to the plate and incubated in a shaker for 2 min. The Luminex™ 200 setting were set according to the manufacturer's protocol. The data was calculated with a standard five-parameter logistic nonlinear regression analysis of the data (xPonent software 4.2, USA). The levels of cytokine/chemokine are normalized to the live cell counts (1×10^5 cells/mL) and presented as concentrations per mL (pg/mL or ng/mL).

[1] = PBMC + LPS(5 ug/ml), test article 0.001 uM, Mean
[2] = PBMC + LPS(5 ug/ml), test article 0.001 uM, single replicates
[3] = PBMC + LPS(5 ug/ml), test article 0.01 uM, Mean
[4] = PBMC + LPS(5 ug/ml), test article 0.01 uM, single replicates
[5] = PBMC + LPS(5 ug/ml), test article 0.1 uM, Mean
[6] = PBMC + LPS(5 ug/ml), test article 0.1 uM, single replicates
[7] = PBMC + LPS(5 ug/ml), test article 1 uM, Mean
[8] = PBMC + LPS(5 ug/ml), test article 1 uM, single replicates
[9] = PBMC + LPS(5 ug/ml), test article 10 uM, Mean
[10] = PBMC + LPS(5 ug/ml), test article 10 uM, single replicates
[11] = PBMC + LPS(5 ug/ml), test article 100 uM, Mean
[12] = PBMC + LPS(5 ug/ml), test article 100 uM, single replicates
[13] = PBMC without LPS, test article 0.01 uM, Mean
[14] = PBMC without LPS, test article 0.01 uM, single replicates
[15] = PBMC without LPS, test article 0.1 uM, Mean
[16] = PBMC without LPS, test article 0.1 uM, single replicates
[17] = PBMC without LPS, test article 1 uM, Mean
[18] = PBMC without LPS, test article 1 uM, single replicates
[19] = PBMC without LPS, test article 10 uM, Mean
[20] = PBMC without LPS, test article 10 uM, single replicates
[21] = PBMC without LPS, test article 100 uM, Mean
[22] = PBMC without LPS, test article 100 uM, single replicates

## CC(C)C[C@H](NC(=O)CNC(=O)[C@H](CC(=O)O)NC(=O)[C@H](CCC(N)=O)NC(=O)CNC(=O)[C@@H]1C[C@@H](O)CN1)C(=O)N[C@@H](C)C(=O)NCC(=O)N1CCC[C@H]1C(=O)N[C@@H](CCCCN)C(=O)O [YY-101] (H-[Hyp]GQDGLAGPK-OH; N-terminus and C-terminus assumed)
[1]
  TIMP-1 Concentration: 2635.9 pg/mL
  TIMP-1 MFI: 1569.7
  TIMP-1 conc/live cell: 411.8 pg/10^5
[2]
  TIMP-1 Concentration: 2670.8 pg/mL and 2497.3 pg/mL and 2739.7 pg/mL
  TIMP-1 MFI: 1596.0 and 1464.5 and 1648.5
  TIMP-1 conc/live cell: 468.6 pg/10^5 and 351.7 pg/10^5 and 415.1 pg/10^5
[3]
  TIMP-1 Concentration: 2651.1 pg/mL
  TIMP-1 MFI: 1581.2
  TIMP-1 conc/live cell: 430.2 pg/10^5
[4]
  TIMP-1 Concentration: 2636.0 pg/mL and 2552.3 pg/mL and 2765.2 pg/mL
  TIMP-1 MFI: 1569.5 and 1506.0 and 1668.0
  TIMP-1 conc/live cell: 411.9 pg/10^5 and 425.4 pg/10^5 and 453.3 pg/10^5
[5]
  TIMP-1 Concentration: 2599.6 pg/mL
  TIMP-1 MFI: 1542.0
  TIMP-1 conc/live cell: 445.1 pg/10^5
[6]
  TIMP-1 Concentration: 2721.3 pg/mL and 2498.6 pg/mL and 2578.7 pg/mL
  TIMP-1 MFI: 1634.5 and 1465.5 and 1526.0
  TIMP-1 conc/live cell: 438.9 pg/10^5 and 480.5 pg/10^5 and 415.9 pg/10^5
[7]
  TIMP-1 Concentration: 2672.9 pg/mL
  TIMP-1 MFI: 1597.7
  TIMP-1 conc/live cell: 410.8 pg/10^5
[8]
  TIMP-1 Concentration: 2614.9 pg/mL and 2656.4 pg/mL and 2747.5 pg/mL
  TIMP-1 MFI: 1553.5 and 1585.0 and 1654.5
  TIMP-1 conc/live cell: 415.1 pg/10^5 and 374.1 pg/10^5 and 443.2 pg/10^5
[9]
  TIMP-1 Concentration: 2693.7 pg/mL
  TIMP-1 MFI: 1613.7
  TIMP-1 conc/live cell: 409.5 pg/10^5
[10]
  TIMP-1 Concentration: 2741.7 pg/mL and 2801.1 pg/mL and 2538.4 pg/mL
  TIMP-1 MFI: 1650.0 and 1695.5 and 1495.5
  TIMP-1 conc/live cell: 456.9 pg/10^5 and 437.7 pg/10^5 and 334.0 pg/10^5
[11]
  TIMP-1 Concentration: 3324.7 pg/mL
  TIMP-1 MFI: 2100.3
  TIMP-1 conc/live cell: 574.3 pg/10^5
[12]
  TIMP-1 Concentration: 3425.7 pg/mL and 3369.3 pg/mL and 3179.1 pg/mL
  TIMP-1 MFI: 2179.0 and 2135.0 and 1987.0
  TIMP-1 conc/live cell: 543.8 pg/10^5 and 543.4 pg/10^5 and 635.8 pg/10^5
[13]
  TIMP-1 Concentration: 5306.9 pg/mL
  TIMP-1 MFI: 3666.0
  TIMP-1 conc/live cell: 1065.2 pg/10^5
[14]
  TIMP-1 Concentration: 5042.4 pg/mL and 5571.4 pg/mL
  TIMP-1 MFI: 3456.0 and 3876.0
  TIMP-1 conc/live cell: 969.7 pg/10^5 and 1160.7 pg/10^5
[15]
  TIMP-1 Concentration: 4907.8 pg/mL
  TIMP-1 MFI: 3349.3
  TIMP-1 conc/live cell: 971.6 pg/10^5
[16]
  TIMP-1 Concentration: 4573.6 pg/mL and 5242.0 pg/mL
  TIMP-1 MFI: 3084.0 and 3614.5
  TIMP-1 conc/live cell: 1039.5 pg/10^5 and 903.8 pg/10^5
[17]
  TIMP-1 Concentration: 5121.4 pg/mL
  TIMP-1 MFI: 3518.8
  TIMP-1 conc/live cell: 931.2 pg/10^5
[18]
  TIMP-1 Concentration: 5155.8 pg/mL and 5087.1 pg/mL
  TIMP-1 MFI: 3546.0 and 3491.5
  TIMP-1 conc/live cell: 937.4 pg/10^5 and 924.9 pg/10^5
[19]
  TIMP-1 Concentration: 6576.7 pg/mL
  TIMP-1 MFI: 4666.8
  TIMP-1 conc/live cell: 1047.2 pg/10^5
[20]
  TIMP-1 Concentration: 8049.3 pg/mL and 5104.1 pg/mL
  TIMP-1 MFI: 5828.5 and 3505.0
  TIMP-1 conc/live cell: 1257.7 pg/10^5 and 836.7 pg/10^5
[21]
  TIMP-1 Concentration: 6554.3 pg/mL
  TIMP-1 MFI: 4654.3
  TIMP-1 conc/live cell: 982.4 pg/10^5
[22]
  TIMP-1 Concentration: 6886.9 pg/mL and 6221.7 pg/mL
  TIMP-1 MFI: 4917.0 and 4391.5
  TIMP-1 conc/live cell: 1076.1 pg/10^5 and 888.8 pg/10^5
